Data published in patent publication US12139520B2 (priority 2020, dated 2024).
Bridge positions count the residues as written; N and C are the ends. Square brackets hold non-standard residues; d marks the D form. Peptide text beside a SMILES is read from it. Hyp = O=C(O)[C@@H]1C[C@@H](O)CN1; Cit = NC(=O)NCCC[C@H](N)C(=O)O

Legend:
hAM1 receptor = hAM1 receptor (Homo sapiens, UniProt O60895+Q16602); assay: cAMP assay for in vitro receptor activation, hAM1-R; format: cell-based; conditions: cAMP assay, hAM1 receptor; read-out: hAM1R EC50
hAM1 receptor, sequence (Q16602 23-461): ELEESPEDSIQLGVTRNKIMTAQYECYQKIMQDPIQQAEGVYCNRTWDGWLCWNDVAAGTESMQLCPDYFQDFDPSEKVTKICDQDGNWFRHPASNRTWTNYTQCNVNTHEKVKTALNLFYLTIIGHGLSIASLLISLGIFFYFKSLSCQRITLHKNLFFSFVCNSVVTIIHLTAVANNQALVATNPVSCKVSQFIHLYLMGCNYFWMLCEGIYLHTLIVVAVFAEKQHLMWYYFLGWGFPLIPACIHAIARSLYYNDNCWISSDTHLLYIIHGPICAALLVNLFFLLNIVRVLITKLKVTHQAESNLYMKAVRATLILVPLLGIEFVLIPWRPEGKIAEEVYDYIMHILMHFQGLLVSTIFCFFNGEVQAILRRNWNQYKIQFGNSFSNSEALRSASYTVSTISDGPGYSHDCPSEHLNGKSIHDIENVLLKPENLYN
hAM1 receptor, sequence (O60895 43-175 partner): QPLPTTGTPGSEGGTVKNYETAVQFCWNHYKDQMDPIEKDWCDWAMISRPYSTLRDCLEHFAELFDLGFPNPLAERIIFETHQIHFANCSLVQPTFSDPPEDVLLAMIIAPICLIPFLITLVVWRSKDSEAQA
Summary of the method: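 Receptor activation, read as cAMP, was assessed in thawed cells of a monoclonal hAM1-overexpressing stable line, plated at 8000 cells/well in DPBS supplemented with 0.05% casein and 0.5 mM IBMX.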

[1] = Physical stability of peptide analogues (Thioflavin T fibrillation); format: physicochemical; conditions: maximum ThT signal normalized between hAMY maximum and buffer background; 40° C., shaking, four days; pH 7 per table title
Summary of the method: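 ThT fluorescence (450 nm excitation, 480 nm emission; 4 μM dye) was read every 10 min over four days at 40° C under 700 rpm shaking stress, after 1 h in pH 4 acetate or pH 7 phosphate (50 mM). Peak smoothed signal expressed as percent, scaled between buffer background and hAMY maximum.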

| EC50 (hAM1 receptor) [µM] | Max ThT signal (%) [1] [%] | Structure (SMILES) |
| --- | --- | --- |
| > 5 | 2.950 | CC[C@H](C)[C@H](NC(=O)[C@H](CCC(N)=O)NC(=O)[C@H](Cc1c[nH]cn1)NC(=O)[C@H](C)NC(=O)[C@H](CC(C)C)NC(=O)[C@H](Cc1c[nH]c2ccccc12)NC(=O)[C@H](CCC(N)=O)NC(=O)[C@@H](NC(=O)[C@@H](NC(=O)[C@@H]1CSSC[C@H](NC(=O)[C@@H](N)CCCCN)C(=O)N[C@@H](CC(N)=O)C(=O)N[C@@H]([C@@H](C)O)C(=O)N[C@@H](C)C(=O)N[C@@H]([C@@H](C)O)C(=O)N1)[C@@H](C)O)C(C)C)C(=O)N[C@@H](Cc1ccc(O)cc1)C(=O)N[C@@H](CCC(N)=O)C(=O)N[C@@H](C)C(=O)N[C@H](C(=O)N[C@@H](CC(=O)O)C(=O)N[C@@H](CCCCN)C(=O)N[C@@H](CC(=O)O)C(=O)N[C@@H](CCCCN)C(=O)N[C@@H](CC(=O)O)C(=O)N[C@@H](CC(N)=O)C(=O)N[C@H](C(=O)N[C@@H](C)C(=O)N1CCC[C@H]1C(=O)N1CCC[C@H]1C(=O)N[C@H](C(=O)N[C@@H](CC(N)=O)C(=O)N[C@H](C(=O)NCC(=O)N[C@@H](CO)C(=O)N[C@@H](CC(N)=O)C(=O)NCC(=O)N1C[C@H](O)C[C@H]1C(N)=O)C(C)C)[C@@H](C)O)C(C)C)[C@@H](C)O [compound 338] (H-KCNTATCTVQWLAHQIYQATDKDKDNVAPPTNVGSNG[Hyp]-NH2; disulfide 2-7; N-terminus assumed) |
| > 5 | 26.050 | CC[C@H](C)[C@H](NC(=O)[C@H](CCC(N)=O)NC(=O)[C@H](Cc1c[nH]cn1)NC(=O)[C@H](C)NC(=O)[C@H](CC(C)C)NC(=O)[C@H](CCCNC(N)=O)NC(=O)[C@H](CCC(N)=O)NC(=O)[C@@H](NC(=O)[C@@H](NC(=O)[C@@H]1CSSC[C@H](NC(=O)CN)C(=O)N[C@@H](CCCNC(=N)N)C(=O)N[C@@H](Cc2c[nH]c3ccccc23)C(=O)NCC(=O)N[C@@H]([C@@H](C)O)C(=O)N1)[C@@H](C)O)C(C)C)C(=O)N[C@@H](Cc1ccc(O)cc1)C(=O)N[C@@H](CCC(N)=O)C(=O)N[C@@H](Cc1ccccc1)C(=O)N[C@H](C(=O)N[C@@H](CC(=O)O)C(=O)N[C@@H](CCCCN)C(=O)N[C@@H](CC(=O)O)C(=O)N[C@@H](CCCCN)C(=O)N[C@@H](CC(=O)O)C(=O)N[C@@H](CC(N)=O)C(=O)N[C@H](C(=O)N[C@@H](C)C(=O)N1CCC[C@H]1C(=O)N[C@@H](CCCNC(=N)N)C(=O)N[C@@H](CO)C(=O)N[C@@H](CCCCN)C(=O)N[C@H](C(=O)N[C@@H](CO)C(=O)N1CCC[C@H]1C(=O)N[C@@H](CCC(N)=O)C(=O)N[C@H](C(=O)N1C[C@H](O)C[C@H]1C(N)=O)[C@@H](C)O)[C@@H](C)CC)C(C)C)[C@@H](C)O [compound 296] (H-GCRWGTCTVQ[Cit]LAHQIYQFTDKDKDNVAPRSKISPQT[Hyp]-NH2; disulfide 2-7; N-terminus assumed) |
| > 5 | 19.700 | CC[C@H](C)[C@H](NC(=O)[C@H](CCC(N)=O)NC(=O)[C@H](Cc1c[nH]cn1)NC(=O)[C@H](C)NC(=O)[C@H](CC(C)C)NC(=O)[C@H](CCCNC(N)=O)NC(=O)[C@H](CCC(N)=O)NC(=O)[C@@H](NC(=O)[C@@H](NC(=O)[C@@H]1CSSC[C@H](NC(=O)CN)C(=O)N[C@@H](CCCNC(=N)N)C(=O)N[C@@H]([C@@H](C)O)C(=O)NCC(=O)N[C@@H]([C@@H](C)O)C(=O)N1)[C@@H](C)O)C(C)C)C(=O)N[C@@H](Cc1ccc(O)cc1)C(=O)N[C@@H](CCC(N)=O)C(=O)N[C@@H](Cc1ccccc1)C(=O)N[C@H](C(=O)N[C@@H](CC(=O)O)C(=O)N[C@@H](CCCCN)C(=O)N[C@@H](CC(=O)O)C(=O)N[C@@H](CCCCN)C(=O)N[C@@H](CC(=O)O)C(=O)N[C@@H](CC(N)=O)C(=O)N[C@H](C(=O)N[C@@H](C)C(=O)N1CCC[C@H]1C(=O)N[C@@H](CCCNC(=N)N)C(=O)N[C@H](C(=O)N[C@@H](CCCCN)C(=O)N[C@H](C(=O)NCC(=O)N1CCC[C@H]1C(=O)N[C@@H](CCC(N)=O)C(=O)NCC(=O)N1C[C@H](O)C[C@H]1C(N)=O)C(C)C)[C@@H](C)O)C(C)C)[C@@H](C)O [compound 292] (H-GCRTGTCTVQ[Cit]LAHQIYQFTDKDKDNVAPRTKVGPQG[Hyp]-NH2; disulfide 2-7; N-terminus assumed) |
